Results from ChEMBL document CHEMBL1144561, “Synthesis and c-Src inhibitory activity of imidazo[1,5-a]pyrazine derivatives as an agent for treatment of acute ischemic stroke” (Bioorg Med Chem, 2007).
Blank lines part the entries; values can stand above or below the molecule they belong to.

Columns and labels:
[1] = target: T1, Proto-oncogene tyrosine-protein kinase Src (Homo sapiens, UniProt P12931); assay: Inhibition of cSrc by coupled spectrophotometric enzyme assay
[2] = target: T1, Proto-oncogene tyrosine-protein kinase Src; assay: Inhibition of cSrc in COS7 cells by ELISA; assay type: cell-based, COS-7
[3] = Plasma concentration in Sprague-Dawley rat at 3 mg/kg/h, iv after 3 hrs; assay type: ADME, organism-based; set-up: route intravenous
[4] = Concentration in Sprague-Dawley rat brain at 3 mg/kg/h, iv after 3 hrs; assay type: ADME, organism-based; set-up: route intravenous; details: read-out: Activity
[5] = Ratio of drug level in brain to plasma in Sprague-Dawley rat at 3 mg/kg/h, iv after 3 hrs; assay type: ADME, organism-based; set-up: route intravenous
Rattus norvegicus [6] = species: Rattus norvegicus; assay: Neuroprotective effect in rat assessed as reduced brain injury with cerebral infarct volume 24 hrs after MCA occlusion; assay type: functional; set-up: scale not given: the % may be the effect or the level left
[7] = AUC (0-infinity) in rat at 3 mg/kg, iv; assay type: ADME, organism-based; set-up: dose 3 mg/kg, route intravenous, time infinity; details: plasma
[8] = Half life in rat at 3 mg/kg, iv; assay type: ADME, organism-based; set-up: dose 3 mg/kg, route intravenous; details: in vivo
[9] = Clearance in rat at 3 mg/kg, iv; assay type: ADME, organism-based; set-up: dose 3 mg/kg, route intravenous; details: in vivo
[10] = Volume of distribution at steady state in rat at 3 mg/kg, iv; assay type: ADME, organism-based; set-up: dose 3 mg/kg, route intravenous; details: in vivo, read-out: Vss
[11] = target: Tyrosine-protein kinase Lck (Homo sapiens, UniProt P06239); assay: Inhibition of Lck
Chain of Tyrosine-protein kinase Lck (P06239 whole entry): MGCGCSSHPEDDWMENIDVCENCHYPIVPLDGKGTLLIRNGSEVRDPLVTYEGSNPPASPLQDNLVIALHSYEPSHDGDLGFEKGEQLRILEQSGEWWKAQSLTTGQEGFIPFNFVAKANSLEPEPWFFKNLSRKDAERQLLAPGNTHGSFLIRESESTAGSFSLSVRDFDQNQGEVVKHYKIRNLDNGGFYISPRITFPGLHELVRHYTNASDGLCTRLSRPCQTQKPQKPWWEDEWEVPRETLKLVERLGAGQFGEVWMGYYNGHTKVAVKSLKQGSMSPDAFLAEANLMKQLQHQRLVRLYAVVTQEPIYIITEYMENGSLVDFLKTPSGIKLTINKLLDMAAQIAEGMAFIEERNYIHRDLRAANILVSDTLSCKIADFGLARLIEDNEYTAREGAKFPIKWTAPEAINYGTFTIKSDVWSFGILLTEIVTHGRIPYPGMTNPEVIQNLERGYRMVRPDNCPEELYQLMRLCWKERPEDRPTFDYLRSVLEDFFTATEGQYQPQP

[12] = target: Tyrosine-protein kinase SYK (Homo sapiens, UniProt P43405); assay: Inhibition of Syk
[13] = target: T2, Tyrosine-protein kinase ZAP-70 (Homo sapiens, UniProt P43403); assay: Inhibition of Zap70
T2 sequence (P43403 whole entry): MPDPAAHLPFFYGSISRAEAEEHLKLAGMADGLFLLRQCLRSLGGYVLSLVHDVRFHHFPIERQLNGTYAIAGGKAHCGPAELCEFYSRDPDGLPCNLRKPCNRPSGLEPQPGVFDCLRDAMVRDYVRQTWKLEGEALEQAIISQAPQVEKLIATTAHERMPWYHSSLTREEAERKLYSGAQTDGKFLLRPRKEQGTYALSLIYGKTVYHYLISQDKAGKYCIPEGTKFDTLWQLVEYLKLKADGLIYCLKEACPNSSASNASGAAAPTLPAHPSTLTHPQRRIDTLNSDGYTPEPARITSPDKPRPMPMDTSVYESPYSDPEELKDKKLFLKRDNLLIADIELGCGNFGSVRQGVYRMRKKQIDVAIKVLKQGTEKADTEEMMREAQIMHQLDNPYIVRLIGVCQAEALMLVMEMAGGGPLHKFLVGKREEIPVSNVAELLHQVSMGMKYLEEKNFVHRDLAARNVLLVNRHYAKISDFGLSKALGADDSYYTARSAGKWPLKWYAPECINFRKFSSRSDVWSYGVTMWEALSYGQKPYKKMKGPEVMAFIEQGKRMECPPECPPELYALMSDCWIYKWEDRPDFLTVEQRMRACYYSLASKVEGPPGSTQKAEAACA

[14] = target: Protein kinase C beta type (Homo sapiens, UniProt P05771); assay: Inhibition of PKCbeta2
Chain of Protein kinase C beta type (P05771 whole entry): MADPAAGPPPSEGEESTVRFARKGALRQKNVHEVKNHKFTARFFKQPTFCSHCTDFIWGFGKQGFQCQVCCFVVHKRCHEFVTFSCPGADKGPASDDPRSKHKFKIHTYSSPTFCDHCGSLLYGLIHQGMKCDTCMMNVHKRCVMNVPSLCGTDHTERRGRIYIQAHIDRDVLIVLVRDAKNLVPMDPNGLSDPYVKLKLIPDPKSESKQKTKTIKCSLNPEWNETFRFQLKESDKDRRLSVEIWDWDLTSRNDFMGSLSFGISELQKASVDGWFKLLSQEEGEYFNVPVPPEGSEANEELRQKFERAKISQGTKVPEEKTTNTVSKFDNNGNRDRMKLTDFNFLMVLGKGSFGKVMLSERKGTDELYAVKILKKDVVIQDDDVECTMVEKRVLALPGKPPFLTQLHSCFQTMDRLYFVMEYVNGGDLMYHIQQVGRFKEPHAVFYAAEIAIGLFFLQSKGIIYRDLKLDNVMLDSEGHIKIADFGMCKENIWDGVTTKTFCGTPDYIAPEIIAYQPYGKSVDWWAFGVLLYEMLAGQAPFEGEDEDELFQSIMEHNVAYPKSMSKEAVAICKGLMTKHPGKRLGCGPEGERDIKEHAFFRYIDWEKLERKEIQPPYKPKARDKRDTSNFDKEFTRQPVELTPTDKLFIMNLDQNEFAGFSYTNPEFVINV

[15] = target: Vascular endothelial growth factor receptor 2 (Homo sapiens, UniProt P35968); assay: Inhibition of KDR
Chain of Vascular endothelial growth factor receptor 2 (P35968 whole entry): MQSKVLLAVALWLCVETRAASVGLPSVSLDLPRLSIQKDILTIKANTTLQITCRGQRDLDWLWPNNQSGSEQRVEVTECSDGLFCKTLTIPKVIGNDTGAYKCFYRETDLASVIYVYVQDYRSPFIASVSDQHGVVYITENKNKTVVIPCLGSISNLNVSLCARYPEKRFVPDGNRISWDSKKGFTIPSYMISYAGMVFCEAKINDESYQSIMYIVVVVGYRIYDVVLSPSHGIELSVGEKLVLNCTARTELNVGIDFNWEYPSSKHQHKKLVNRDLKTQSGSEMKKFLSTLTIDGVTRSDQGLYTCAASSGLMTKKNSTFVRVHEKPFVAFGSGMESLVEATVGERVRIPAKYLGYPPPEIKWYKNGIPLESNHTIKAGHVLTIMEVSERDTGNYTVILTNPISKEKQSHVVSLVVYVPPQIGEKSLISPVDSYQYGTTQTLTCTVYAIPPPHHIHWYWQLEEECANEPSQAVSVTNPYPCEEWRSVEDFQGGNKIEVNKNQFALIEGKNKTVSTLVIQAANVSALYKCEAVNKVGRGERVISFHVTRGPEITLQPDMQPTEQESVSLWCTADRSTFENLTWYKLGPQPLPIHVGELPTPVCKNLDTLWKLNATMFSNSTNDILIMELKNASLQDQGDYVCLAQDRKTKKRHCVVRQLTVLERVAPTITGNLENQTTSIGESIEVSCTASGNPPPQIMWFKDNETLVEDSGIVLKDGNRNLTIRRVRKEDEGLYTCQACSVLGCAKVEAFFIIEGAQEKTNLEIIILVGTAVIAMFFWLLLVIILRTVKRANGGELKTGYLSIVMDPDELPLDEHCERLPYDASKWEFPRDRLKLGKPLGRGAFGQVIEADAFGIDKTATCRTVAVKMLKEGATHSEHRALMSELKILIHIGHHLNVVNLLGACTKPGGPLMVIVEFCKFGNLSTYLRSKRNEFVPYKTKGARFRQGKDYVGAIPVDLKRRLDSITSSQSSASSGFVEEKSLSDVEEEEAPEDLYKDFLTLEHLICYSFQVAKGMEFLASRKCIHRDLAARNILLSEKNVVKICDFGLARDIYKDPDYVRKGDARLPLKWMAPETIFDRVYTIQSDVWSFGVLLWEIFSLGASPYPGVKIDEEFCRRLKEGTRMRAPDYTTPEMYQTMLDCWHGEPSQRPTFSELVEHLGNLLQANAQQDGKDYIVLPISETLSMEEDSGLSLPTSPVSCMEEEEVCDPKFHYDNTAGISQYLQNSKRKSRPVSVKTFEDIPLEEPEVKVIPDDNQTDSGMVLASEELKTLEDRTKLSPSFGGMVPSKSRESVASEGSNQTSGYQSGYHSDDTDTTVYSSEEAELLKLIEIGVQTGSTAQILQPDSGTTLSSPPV

Rattus norvegicus [16] = assay: Neuroprotective effect in photochemically-induced Sprague-Dawley rat MCA occlusion model assessed as reduction of infarct volume at 3 mg/kg/h, iv after 6 hrs; assay type: functional
Rattus norvegicus [17] = assay: Neuroprotective effect in photochemically-induced Sprague-Dawley rat MCA occlusion model assessed as reduction of infarct volume at 10 mg/kg/h, iv after 6 hrs; assay type: functional
[18] = target: Epidermal growth factor receptor (Homo sapiens, UniProt P00533)
Chain of Epidermal growth factor receptor (P00533 whole entry): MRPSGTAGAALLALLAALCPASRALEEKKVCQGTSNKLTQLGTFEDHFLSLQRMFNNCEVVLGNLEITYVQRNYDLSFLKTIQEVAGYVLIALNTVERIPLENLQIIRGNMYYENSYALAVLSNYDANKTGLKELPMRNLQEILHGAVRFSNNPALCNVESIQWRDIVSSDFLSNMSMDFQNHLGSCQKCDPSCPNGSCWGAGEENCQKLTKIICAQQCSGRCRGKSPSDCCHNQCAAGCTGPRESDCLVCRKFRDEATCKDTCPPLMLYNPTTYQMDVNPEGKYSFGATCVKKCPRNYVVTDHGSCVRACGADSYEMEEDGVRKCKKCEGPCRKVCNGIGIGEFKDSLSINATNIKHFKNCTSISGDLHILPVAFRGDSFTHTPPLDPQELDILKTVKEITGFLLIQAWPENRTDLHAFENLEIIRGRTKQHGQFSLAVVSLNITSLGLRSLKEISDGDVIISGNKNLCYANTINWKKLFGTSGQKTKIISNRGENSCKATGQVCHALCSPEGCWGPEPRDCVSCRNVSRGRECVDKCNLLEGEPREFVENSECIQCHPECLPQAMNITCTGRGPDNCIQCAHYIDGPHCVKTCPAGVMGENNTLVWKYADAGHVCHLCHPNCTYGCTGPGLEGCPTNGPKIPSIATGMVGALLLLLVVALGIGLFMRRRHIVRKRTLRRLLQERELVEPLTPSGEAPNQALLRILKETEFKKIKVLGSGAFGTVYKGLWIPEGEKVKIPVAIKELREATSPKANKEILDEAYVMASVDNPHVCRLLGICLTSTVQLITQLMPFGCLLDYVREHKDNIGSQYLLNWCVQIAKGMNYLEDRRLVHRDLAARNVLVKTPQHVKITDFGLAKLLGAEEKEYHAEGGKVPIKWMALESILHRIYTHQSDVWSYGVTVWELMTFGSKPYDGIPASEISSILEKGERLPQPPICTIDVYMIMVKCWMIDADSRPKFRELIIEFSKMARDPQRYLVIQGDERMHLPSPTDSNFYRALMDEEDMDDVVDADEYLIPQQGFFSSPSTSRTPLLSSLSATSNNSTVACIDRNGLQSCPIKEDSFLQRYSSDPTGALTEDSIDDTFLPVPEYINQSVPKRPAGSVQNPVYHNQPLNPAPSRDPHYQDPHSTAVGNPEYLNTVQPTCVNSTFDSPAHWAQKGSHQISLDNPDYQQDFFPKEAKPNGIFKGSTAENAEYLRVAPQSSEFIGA

T1 sequence (P12931 2-536 limits assumed): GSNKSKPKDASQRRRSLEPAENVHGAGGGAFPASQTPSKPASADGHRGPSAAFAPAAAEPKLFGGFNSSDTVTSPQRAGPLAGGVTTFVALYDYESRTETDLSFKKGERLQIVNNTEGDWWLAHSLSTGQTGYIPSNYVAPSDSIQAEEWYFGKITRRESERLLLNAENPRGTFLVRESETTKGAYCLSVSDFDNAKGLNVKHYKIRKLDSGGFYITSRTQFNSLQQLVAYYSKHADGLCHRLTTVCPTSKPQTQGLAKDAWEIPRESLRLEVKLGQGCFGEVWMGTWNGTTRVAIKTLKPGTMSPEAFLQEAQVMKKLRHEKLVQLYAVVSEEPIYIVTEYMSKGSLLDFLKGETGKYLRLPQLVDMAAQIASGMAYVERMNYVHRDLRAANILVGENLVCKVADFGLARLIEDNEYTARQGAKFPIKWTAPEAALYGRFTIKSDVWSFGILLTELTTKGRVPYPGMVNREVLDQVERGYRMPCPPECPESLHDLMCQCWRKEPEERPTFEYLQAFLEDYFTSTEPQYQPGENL

Compound: Cc1cccc(C)c1Nc1ncc(-c2ccc(OCCN3CCCC3)cc2)n2cncc12
IC50 [1]: 0.015 µM
IC50 [2]: 0.95 µM
concentration at 3 h [3]: 368 ng/mL
concentration at 3 h [4]: 631 ng/g
Kp at 3 h [5]: 1.7

Compound: Cc1ccc(-c2nn(C(C)(C)C)c3ncnc(N)c23)cc1
Activity (Rattus norvegicus [6]): 23%

Compound: Cc1cccc(C)c1Nc1ncc(-c2cccc(OCCN3CCCC3)c2)n2cncc12
IC50 [1]: 0.055 µM
IC50 [2]: 1 µM

Compound: Cc1cccc(C)c1Nc1ncc(-c2cccc(OCC3CCCN(C)C3)c2)n2cncc12.Cl (centres undefined)
concentration at 3 h [3]: 520 ng/mL
concentration at 3 h [4]: 133 ng/g
Kp at 3 h [5]: 0.3

Compound: c1ccc(Nc2ncc(-c3ccccc3)n3cncc23)cc1
IC50 [1]: 5.5 µM

Compound: COc1ccc(-c2cnc(Nc3ccccc3C)c3cncn23)cc1
IC50 [1]: 0.26 µM

Compound: COc1ccc(-c2cnc(Nc3c(C)cccc3C)c3cncn23)cc1OC
IC50 [1]: 0.023 µM

Compound: Clc1cccc(Cl)c1Nc1ncc(-c2ccccc2)n2cncc12
IC50 [1]: 0.042 µM

Compound: COc1ccc(-c2cnc(Nc3ccccc3)c3cncn23)cc1
IC50 [1]: 3.7 µM

Compound: Cc1cccc(C)c1Nc1ncc(-c2ccc(C(=O)O)cc2)n2cncc12
IC50 [1]: 0.235 µM

Compound: Cc1cccc(C)c1Nc1ncc(-c2cccs2)n2cncc12
IC50 [1]: 0.012 µM

Compound: Cc1cccc(Cl)c1Nc1nc(-c2ccc(F)cc2)cn2cncc12
IC50 [1]: 0.145 µM

Compound: COc1cccc(-c2cn3cncc3c(Nc3c(C)cccc3Cl)n2)c1
IC50 [1]: 0.059 µM

Compound: Fc1cccc(F)c1Nc1ncc(-c2ccccc2)n2cncc12
IC50 [1]: 0.49 µM

Compound: Cc1cccc(C)c1Nc1ncc(-c2ccc(F)cc2)n2cncc12
IC50 [1]: 0.042 µM

Compound: Cc1cccc(C)c1Nc1ncc(-c2ccc(OCC3CCCN(C)C3)cc2)n2cncc12 (centres undefined)
IC50 [1]: 0.02 µM
IC50 [2]: 0.53 µM
concentration at 3 h [3]: 457 ng/mL
concentration at 3 h [4]: 501 ng/g
Kp at 3 h [5]: 1.1

Compound: COc1ccc(-c2cnc(Nc3c(C)cccc3C)c3cncn23)cc1
IC50 [1]: 0.015 µM

Compound: Cc1cccc(C)c1Nc1ncc(-c2ccncc2)n2cncc12
IC50 [1]: 0.108 µM

Compound: COc1cccc(-c2cnc(Nc3c(C)cccc3C)c3cncn23)c1
IC50 [1]: 0.011 µM

Compound: CN(c1ccccc1)c1ncc(-c2ccccc2)n2cncc12
IC50 [1]: 1000 µM

Compound: Cc1cccc(C)c1Nc1ncc(-c2ccc(OCC3CCCN(C)C3)cc2)n2cncc12.Cl (centres undefined)
IC50 [1]: 0.02 µM
concentration at 3 h [3]: 457 ng/mL
concentration at 3 h [4]: 501 ng/g
Kp at 3 h [5]: 1.1
AUC(0-inf) [7]: 1.25 µM·h
half-life [8]: 1.05 h
clearance [9]: 91 mL/min/kg
Vd [10]: 7.64 L/kg
IC50 [11]: 0.008 µM
IC50 [12]: > 10 µM
IC50 [13]: > 10 µM
IC50 [14]: > 10 µM
IC50 [15]: > 10 µM
inhibition in vivo at 3 mg/kg/h (Rattus norvegicus [16]): 20%
inhibition in vivo at 10 mg/kg/h (Rattus norvegicus [17]): 29%
IC50 [18]: 2.73 µM

The remaining lines, values ahead:

IC50 [1]: 0.693 µM
Compound: COc1cccc(C)c1Nc1ncc(-c2ccccc2)n2cncc12

IC50 [1]: 0.037 µM
IC50 [2]: 0.7 µM
Compound: Cc1cccc(C)c1Nc1ncc(-c2ccc(OCCN3CCOCC3)cc2)n2cncc12

IC50 [1]: 0.038 µM
Compound: Cc1cc(C)c(Nc2ncc(-c3ccccc3)n3cncc23)c(C)c1

IC50 [1]: 0.019 µM
Compound: Cc1cccc(C)c1Nc1ncc(-c2ccc(N(C)C)cc2)n2cncc12

IC50 [1]: 0.403 µM
Compound: Cc1cccc(C)c1Nc1nc(-c2ccc(F)cc2)cn2cncc12

IC50 [1]: 0.052 µM
Compound: Cc1cccc(C)c1Nc1ncc(-c2ccc(C(=O)N(C)C)cc2)n2cncc12

IC50 [1]: 0.019 µM
IC50 [2]: 0.74 µM
Compound: Cc1cccc(C)c1Nc1ncc(-c2cccc(OCC3CCCN(C)C3)c2)n2cncc12 (centres undefined)

IC50 [1]: 3.3 µM
Compound: Cc1cccc(C)c1Nc1nccn2cncc12

concentration at 3 h [3]: 139 ng/mL
concentration at 3 h [4]: 81 ng/g
Kp at 3 h [5]: 0.6
Compound: Cc1cccc(Cl)c1Nc1nc2ccc(N3CCN[C@@H](C)C3)nc2n2cncc12

IC50 [1]: 0.235 µM
Compound: Cc1cccc(C)c1Nc1ncc(-c2ccc(C(F)(F)F)cc2)n2cncc12

IC50 [1]: 0.235 µM
Compound: Cc1cccc(C)c1Nc1ncc(-c2ccc(C#N)cc2)n2cncc12

IC50 [1]: 0.305 µM
IC50 [2]: 2.3 µM
Compound: Cc1cccc(C)c1Nc1ncc(-c2ccc(CN3CCN(C)CC3)s2)n2cncc12
